Results taken from patent publication US10919927B2, “Immune stimulating macrolide” (ISR IMMUNE SYSTEM REGULATION HOLDING AB (PUBL), priority 2017, dated 2021).
“Also recorded” adds a separate entry of the source.

Tests used:
[1] = target: T1, human TLR2 (Homo sapiens, UniProt O60603); experiment: TLR2 reporter assay (HEK-293-TLR cells, SEAP); type: cell-based; conditions: concentrations 5 uM up to 20 uM
T1 construct: host or cells: recombinant HEK-293-TLR cell lines
Procedure: These cell lines functionally over-express human TLR2 protein as well as a reporter gene which is a secreted alkaline phosphatase (SEAP). The production of this reporter gene is driven by an NFkB inducible promoter. The TLR reporter cell lines activation results are given as optical density values (OD).
20 μl of each test article were used to stimulate the hTLR2 reporter cell lines in a 200 μl of final reaction volume. Samples were tested in duplicate, with at least two concentrations tested—20 uM and 10 uM.
Compounds were tested using a TLR2 reporter assay (see general methods) that measured for stimulation of the TLR2 receptor. Stimulatory effect was measured as an increase in optical density, as compared to the negative control (OD) due to release of secreted alkaline phosphatase (SEAP) and is shown in table 2.

[2] = system: E. coli, S. salivarius, L. casei, B. longum or M. luteus; experiment: Direct antibacterial activity, all bacterial strains tested (summary); type: cell-based
Procedure: The bioactivity of macrolide compounds against 4 strains of common gut bacteria (Escherichia coli, Streptococcus salivarius subsp. salivarius, Lactobacillus casei and Bifidobacterium longum subsp. infantis) and common mammalian skin isolate Micrococcus luteus, was assessed using the Minimum Inhibitory Concentration (MIC) assay. Bacterial strains were purchased from DSMZ (Brunswick, Germany) except M. luteus which was obtained from NCIMB, and stored in 20% glycerol at −80° C. Stock solutions (100% DMSO) of positive controls (azithromycin and erythromycin), and of test compounds 1 and 2 were diluted in broth to working stock concentrations of 256 μg/ml (final assay testing concentration range 128 μg/ml to 0.00391 μg/ml). Stock solutions of all other compounds were diluted in broth to working stock concentrations of 128 μg/ml (final assay testing concentration range 64 μg/ml to 0.00195 μg/ml). Bacterial strains were cultivated in appropriate broth in an anaerobic chamber at 37° C., except for M. luteus which was incubated aerobically at 37° C. 18 h cultures were diluted in broth to an OD595 of 0.1 and then further diluted 1:10. In 96-well plates, in duplicate, 200 μl working stock of test compound was transferred to well 1 and serially diluted (1:2) in broth. 100 μl bacterial suspension was aliquoted into each well and mixed thoroughly. Appropriate sterility controls were included and plates were incubated in an anaerobic chamber, or aerobically (M. luteus) at 37° C. for 18 h. The MIC was determined to be the concentration of test compound in the first well with no visible growth.

[3] = Caco-2 bidirectional permeability assay; type: in vitro ADME; conditions: human, Caco-2, 10 μM, 90 minutes
Procedure: (§1) 10 μM Test article was added to the apical (A) surface of Caco-2 cell monolayers (in HBSS buffer with 0.3% DMSO and 5 μM LY at 37 degrees C.) and compound permeation into the basolateral (B) compartment measured following 90 minutes incubation. This was also performed in the reverse direction (basolateral to apical) to investigate active transport. LC-MS/MS is used to quantify levels of both the test and standard control compounds. Efflux ratio was calculated by dividing the B to A permeability by the […]. Drug permeability: Papp=(VA/(Area×time))×([drug]accepter/(([drug]initial,donor)×Dilution Factor). Assessment of Metabolic Stability (Microsome Stability Assay)
(§2) Compounds were tested using a standard caco-2 bidirectional permeability assay (see general methods).

[4] = system: CD4+ T cells; experiment: IL-1beta secretion from CD4+ T cells, cytometric bead assay; type: cell-based, Human; conditions: 2 days
Text: (§3) Study 12: PBMCs, macrophages and CD4+ T cells where exposed to compounds 1 and 2 for 2 days.

[5] = system: C57bl/6 mice; experiment: CD25 high cells in blood of mice after i.v. injection; type: in vivo; conditions: highest dose of 5 mg/kg, 24 h
Procedure: FIG. 14: % CD25 high cells in blood of C57bl/6 mice injected 24 h previously with indicated dose of compound 1. CD25 expression was measured by flow cytometry.
Study 13: Compound 1 was administered i.v. to C57bl/6 mice at 0.165 mg/kg to 5 mg/kg. CD25+ cell abundance was increased in animals receiving the highest dose of 5 mg/kg (FIG. 14), as was body weight in the same group (not shown).

[6] = system: Caco-2 cell monolayers; experiment: Caco-2 bidirectional permeability assay; type: in vitro ADME
Procedure: as §1, §2

[7] = system: C57bl/6 mice; experiment: MHC class I expression on CD11b+ splenocytes of mice after i.v. injection; type: in vivo; conditions: spleen 24 h later
Procedure: FIG. 15: % MHC class I high CD11 b+ cells in spleen of 3 individual C57bl/6 mice injected 24 h previously with indicated compound. MHC class I and CD11 b expression was measured by flow cytometry.
Study 14: Compound 1 or 2 was administered i.v. to C57bl/6 mice.

[8] = system: PBMCs from cytomegalovirus (CMV) infected donors; experiment: Cytomegalovirus (CMV) antigen cultures; type: cell-based, Human
Procedure: Human peripheral blood mononuclear cells (PBMCs) were purified from healthy CMV positive donors with Ficoll-Paque density centrifugation. The PBMC were labeled with 5 μM celltrace violet (Invitrogen) in PBS for 15 minutes and then washed with complete cell culture medium. The labeled PBMC was cultured in the presence of a peptide library spanning the CMV pp65 protein (1 μg peptide/ml, JPT) in AIM-V media (Invitrogen) supplemented with L-glutamine, Sodium pyruvate (Sigma), 10% fetal bovine serum, 100 μg/mL penicillin and 100 μg/mL streptomycin (Hyclone) for 6-8 days in 37° C., 5% CO2. Cell proliferation was assessed with flow cytomtery using a BD FACS Canto II flow cytometer.
Study 7: Virus specific T cell proliferation was also affected by compound 1. […] CD127 is crucial for T cell homeostasis, differentiation and function, and reduced expression correlates with disease severity in HIV and other chronic viral diseases (Crawley et al Sem Imm 2012).
Study 8: PBMCs from CMV infected donors cultured in the presence of CMV antigen where either untreated or exposed to compound 1 or compound 2 for 3 days.

[9] = system: PBMCs; experiment: Cytokine secretion from PBMC, cytometric bead assay; type: cell-based, Human; conditions: 2 days
Text: (§4) Study 10: PBMCs and macrophages where exposed to compounds 1 or 2 for 2 days (FIG. 11).
(§5) Study 11: PBMCs and macrophages where exposed to compounds 1 and 2 for 2 days.
as §3

[10] = system: Macrophages from healthy donors; experiment: Cytokine secretion from macrophages, cytometric bead assay; type: cell-based, Human
Procedure: Study 9: Macrophages from healthy donors where exposed to compounds 1 or 2 for 48 hours. […] Compound 1 is therefore able to induce IFN-gamma secretion in macrophages from healthy donors.
as §4, §5, §3

T1 sequence (O60603 21-784): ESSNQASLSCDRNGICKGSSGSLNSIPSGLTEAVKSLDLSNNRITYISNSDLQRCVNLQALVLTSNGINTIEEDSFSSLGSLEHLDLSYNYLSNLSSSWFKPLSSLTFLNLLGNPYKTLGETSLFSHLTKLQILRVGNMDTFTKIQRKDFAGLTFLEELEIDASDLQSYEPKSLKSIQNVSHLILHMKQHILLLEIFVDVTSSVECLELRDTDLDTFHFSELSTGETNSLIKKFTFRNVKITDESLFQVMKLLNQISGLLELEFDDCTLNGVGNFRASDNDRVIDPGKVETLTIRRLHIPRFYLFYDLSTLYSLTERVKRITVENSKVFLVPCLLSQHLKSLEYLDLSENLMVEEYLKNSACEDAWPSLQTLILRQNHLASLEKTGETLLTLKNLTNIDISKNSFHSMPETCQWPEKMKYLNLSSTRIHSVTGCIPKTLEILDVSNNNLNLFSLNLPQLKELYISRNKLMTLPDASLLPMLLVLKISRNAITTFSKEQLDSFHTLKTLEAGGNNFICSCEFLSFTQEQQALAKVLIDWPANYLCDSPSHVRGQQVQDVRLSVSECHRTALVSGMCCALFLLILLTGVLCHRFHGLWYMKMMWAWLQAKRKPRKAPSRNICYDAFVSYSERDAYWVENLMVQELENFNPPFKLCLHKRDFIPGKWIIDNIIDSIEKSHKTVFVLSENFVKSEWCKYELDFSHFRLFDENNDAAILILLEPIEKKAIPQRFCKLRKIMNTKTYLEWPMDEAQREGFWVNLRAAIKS

Structure (SMILES) | TLR2 stimulation (in words) [1] | antibacterial activity (in words) [2] | efflux ratio at 90 min, 10 μM [3] | Papp A→B at 90 min, 10 μM ([3]; apical to basolateral) [×10⁻⁶ cm/s] | IL-1beta secretion in CD4+ T cells [4] | CD25+ cell abundance in blood [5] | cell permeability compared with Azithromycin and EM703 (in words) [6] | efflux ratio compared with Azithromycin and EM703 (in words) [6] | splenocyte cells (CD11b+) with high MHC I expression [7] | IFN-gamma secretion ([8]; 3 days) | IL-7 receptor α (CD127) on activated CMV specific CD8+ T cells ([8]; 6 days) | IL-1beta secretion in PBMCs [9] | IL-12p70 secretion from PBMCs [9] | expression of RANTES in PBMCs [9] | IL-1beta secretion in macrophages ([10]; 2 days) | IL-12p70 secretion from macrophages ([10]; 2 days) | expression of RANTES in macrophages ([10]; 2 days) | IFN-gamma secretion from macrophages ([10]; 48 hours)
CC[C@H]1OC(=O)[C@H](C)[C@@H](O[C@H]2C[C@@](C)(OC)[C@@H](O)[C@H](C)O2)[C@H](C)[C@@H](O[C@@H]2O[C@H](C)C[C@H](N(C)C)[C@H]2O)[C@](C)(O)C[C@@H](C)C(=O)[C@H](C)[C@@H](O)[C@]1(C)O [Erythromycin, Erythromycin A, reference compound] | little or no stimulation | potent activity |  |  |  |  |  |  |  |  |  |  |  |  |  |  |  | 
CC[C@H]1OC(=O)[C@H](C)[C@@H](O[C@H]2C[C@@](C)(OC)[C@@H](O)[C@H](C)O2)[C@H](C)[C@@H](O[C@@H]2O[C@H](C)C[C@H](N(C)C)[C@H]2O)[C@](C)(O)C[C@@H](C)CN(C)[C@H](C)[C@@H](O)[C@]1(C)O [Azithromycin, reference compound] | little or no stimulation | potent activity | > 77.6 | < 0.14 |  |  |  |  |  |  |  |  |  |  |  |  |  | 
CC[C@H]1OC(=O)[C@H](C)[C@@H](O[C@H]2C[C@@H](N(C)C)[C@H](O)[C@@H](C)O2)[C@H](C)[C@@H](O)[C@](C)(O)C[C@@H](C)CN(C)[C@H](C)[C@@H](O)[C@]1(C)O [Compound 1] | stimulated TLR2 at concentrations down to 5 uM | no antibacterial activity; also recorded: no or minimal antibacterial effect | 63.4 |  | no IL-1beta was induced | increased | more cell permeable | lower efflux ratio | increase | induced secretion of high levels | increased expression | slightly | secreted IL-12p70 | twofold upregulation | increased | secreted IL-12p70 | high expression | secreted IFN-gamma
